pIC50: −log10 of the molar value. Like-named read-outs stand apart in the source and are kept apart here.
Key:
[1] = target: GSK3α (GST-full length GSK3α) (Homo sapiens (Human), UniProt P49840); test: GSK3α TR-FRET kinase assay; type: biochemical
Outline: (§1)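 1 nM GST-GSK3α/β + cpd, 30 min preinc; add 200 nM biotin-pS645 GS(631-650) peptide + ATP (α 4 μM / β 2 μM, or 1 mM); 100 min RT, 50 mM Tris pH 7.5, 20 mM MgCl2, 1% DMSO; EDTA stop; SA-d2/Tb-pSer641 Ab 60 min; 665/615 ratio → IC50.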

[2] = target: GSK3b (GST-full length GSK3b) (Homo sapiens (Human), UniProt P49841); test: GSK3b TR-FRET kinase assay; type: biochemical
Outline: as §1

[3] = 1 nM GSK3α, 4 μM ATP, 30 minute preincubation, geometric mean, read-out: GSK3-A TR-FRET BIOCHEMICAL (TR-FRET), GMean, IC50
[4] = 1 nM GSK3b, 2 μM ATP, 30 minute preincubation, geometric mean, read-out: GSK3-B TR-FRET BIOCHEMICAL (TR-FRET), GMean, IC50
[5] = read-out: GSK3-A (TR-FRET 1 mM ATP), GMean, IC50, 1 mM ATP, geometric mean
[6] = read-out: GSK3-B (TR-FRET 1 mM ATP), GMean, IC50, 1 mM ATP, geometric mean
[7] = 1 nM GSK3α, 4 μM ATP, 30 minute preincubation, Table 16, read-out: GSK3-A TR-FRET BIOCHEMICAL (TR-FRET)
[8] = 1 nM GSK3b, 2 μM ATP, 30 minute preincubation, Table 16, read-out: GSK3-B TR-FRET BIOCHEMICAL (TR-FRET)

Chain of GSK3α (GST-full length GSK3α) (P49840 whole entry): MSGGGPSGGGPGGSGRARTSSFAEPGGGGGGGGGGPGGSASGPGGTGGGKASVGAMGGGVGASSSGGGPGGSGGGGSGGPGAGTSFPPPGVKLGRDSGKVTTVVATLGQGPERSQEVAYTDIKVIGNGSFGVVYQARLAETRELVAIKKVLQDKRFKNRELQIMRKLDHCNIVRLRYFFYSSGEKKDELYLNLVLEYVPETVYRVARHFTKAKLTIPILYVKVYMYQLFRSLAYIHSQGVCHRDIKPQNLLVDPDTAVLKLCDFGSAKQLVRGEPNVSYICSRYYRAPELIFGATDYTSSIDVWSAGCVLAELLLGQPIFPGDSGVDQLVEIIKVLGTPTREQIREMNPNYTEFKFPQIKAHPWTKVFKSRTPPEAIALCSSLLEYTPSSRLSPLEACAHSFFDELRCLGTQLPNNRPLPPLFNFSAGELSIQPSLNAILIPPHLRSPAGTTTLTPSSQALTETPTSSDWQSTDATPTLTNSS
Chain of GSK3b (GST-full length GSK3b) (P49841 whole entry): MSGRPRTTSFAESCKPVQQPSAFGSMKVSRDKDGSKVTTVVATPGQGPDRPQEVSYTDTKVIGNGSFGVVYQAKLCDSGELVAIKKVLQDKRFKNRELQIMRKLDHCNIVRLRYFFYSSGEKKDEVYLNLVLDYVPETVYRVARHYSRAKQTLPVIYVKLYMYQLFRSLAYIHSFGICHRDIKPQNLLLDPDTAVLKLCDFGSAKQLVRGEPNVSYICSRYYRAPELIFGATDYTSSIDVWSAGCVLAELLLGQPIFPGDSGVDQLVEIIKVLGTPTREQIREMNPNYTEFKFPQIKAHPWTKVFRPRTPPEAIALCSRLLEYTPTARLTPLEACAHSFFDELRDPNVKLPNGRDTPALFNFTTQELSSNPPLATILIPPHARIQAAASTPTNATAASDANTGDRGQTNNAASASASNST

SMILES | pIC50 [1, 3] | pIC50 [2, 4] | further results
CCC1(c2cccc(C3CCCC3)c2)C2=C(CC(C)(C)CC2=O)Nc2n[nH]cc21 (stereo not drawn) [Compound 949082] |  |  | pIC50 ([1]; 1 nM GSK3α, 4 μM ATP, 30 minute preincubation, Table 16, read-out: GSK3-A TR-FRET BIOCHEMICAL (TR-FRET), IC50): ≥ 7.00; pIC50 ([2]; 1 nM GSK3b, 2 μM ATP, 30 minute preincubation, Table 16, read-out: GSK3-B TR-FRET BIOCHEMICAL (TR-FRET), IC50): ≥ 7.00
CC[C@]1(c2cccc(-c3cnn(CCOC)c3)c2)C2=C(CC(C)(C)NC2=O)Nc2n[nH]cc21 [Compound 949105] | ≥ 7.00 | 6.00 to 7.00 | 
CC[C@@]1(c2cccc(-c3cnn(C(C)(C)C)c3)c2)C2=C(CC(C)(C)NC2=O)Nc2n[nH]cc21 [Compound 949107] | < 5.30 | < 5.30 | 
CC[C@]1(c2cccc(-c3cc(OC)ncc3F)c2)C2=C(CC(C)(C)NC2=O)Nc2n[nH]cc21 [Compound 949109] | ≥ 7.00 | 6.00 to 7.00 | 
CCC1(c2cccc(-c3cn(C)nc3C(C)C)c2)C2=C(CC(C)(C)NC2=O)Nc2n[nH]cc21 (stereo not drawn) [Compound 949111] | 6.00 to 7.00 | 5.30 to 6.00 | 
CC[C@]1(c2cccc(-c3cnn(C(C)(C)C)c3)c2)C2=C(CC(C)(C)NC2=O)Nc2n[nH]cc21 [Compound 949112] | ≥ 7.00 | 6.00 to 7.00 | pIC50 [1, 5]: < 5.30; pIC50 [2, 6]: < 5.30
CC[C@]1(c2cccc(OCC(F)F)c2)C2=C(CC(C)(C)CC2=O)Nc2n[nH]cc21 [Compound 949113] |  |  | pIC50 [1, 7]: 5.30 to 6.00; pIC50 [2, 8]: < 5.30
CCC1(c2cccc(-c3cnn(CCOC)c3)c2)C2=C(CC(C)(C)NC2=O)Nc2n[nH]cc21 (stereo not drawn) [Compound 949114] | 5.30 to 6.00 | < 5.30 | 
CCC1(c2cccc(-c3cc(OC)nc4ccccc34)c2)C2=C(CC(C)(C)NC2=O)Nc2n[nH]cc21 (stereo not drawn) [Compound 949116] | < 5.30 | < 5.30 | 
CC[C@@]1(c2cccc(C(F)(F)F)c2)C2=C(CCN(c3ccc(C)cc3)C2=O)Nc2n[nH]cc21 [Compound 949118] | ≥ 7.00 | 6.00 to 7.00 | 
CC[C@]1(c2cccc(C(F)(F)F)c2)C2=C(CCN(c3ccc(C)cc3)C2=O)Nc2n[nH]cc21 [Compound 949119] | 5.30 to 6.00 | < 5.30 | 
CCC1(c2cccc(C3CN(C(C)=O)C3)c2)C2=C(CC(C)(C)CC2=O)Nc2n[nH]cc21 (stereo not drawn) [Compound 949131] |  |  | pIC50 [1, 7]: 6.00 to 7.00; pIC50 [2, 8]: 5.30 to 6.00
CC[C@]1(c2cccc(C3CN(C(C)=O)C3)c2)C2=C(CC(C)(C)CC2=O)Nc2n[nH]cc21 [Compound 949132] |  |  | pIC50 [1, 7]: < 5.30; pIC50 [2, 8]: < 5.30

More lines, main results first:

pIC50 [1, 3] | pIC50 [2, 4] | SMILES | further results
≥ 7.00 | 6.00 to 7.00 | CCC1(c2cccc(C(F)(F)F)c2)C2=C(CCN(c3cnc(OC)nc3)C2=O)Nc2n[nH]c(C)c21 (stereo not drawn) [Compound 949126] | 
5.30 to 6.00 | < 5.30 | CC[C@]1(c2cccc(C(F)(F)F)c2)C2=C(CCN(c3cnc(OC)nc3)C2=O)Nc2n[nH]cc21 [Compound 949127] | 
≥ 7.00 | 6.00 to 7.00 | CCC1(c2cccc(C(F)(F)F)c2)C2=C(CCN(c3ccccc3C)C2=O)Nc2n[nH]cc21 (stereo not drawn) [Compound 949128] | 
< 5.30 | < 5.30 | CC[C@]1(c2cccc(C(F)(F)F)c2)C2=C(CCN(c3ccccc3C)C2=O)Nc2n[nH]cc21 [Compound 949129] | 
≥ 7.00 | ≥ 7.00 | CCC1(c2cccc(-c3ccnc(C)c3)c2)C2=C(CC(C)(C)NC2=O)Nc2n[nH]c(C(F)F)c21 (stereo not drawn) [Compound 949169] | pIC50 [1, 5]: 6.00 to 7.00; pIC50 [2, 6]: 5.30 to 6.00
≥ 7.00 | ≥ 7.00 | CCC1(c2cccc(-c3cn(C)nc3C)c2)C2=C(CC(C)(C)NC2=O)Nc2n[nH]c(C(F)F)c21 (stereo not drawn) [Compound 949170] | 
≥ 7.00 | ≥ 7.00 | CCC1(c2cccc(-c3cnn(C)c3)c2)C2=C(CC(C)(C)NC2=O)Nc2n[nH]c(C(F)F)c21 (stereo not drawn) [Compound 949171] | pIC50 [1, 5]: ≥ 7.00; pIC50 [2, 6]: 5.30 to 6.00
≥ 7.00 | ≥ 7.00 | CCC1(c2cccc(C(C)C)c2)C2=C(CC(C)(C)NC2=O)Nc2n[nH]c(C)c21 (stereo not drawn) [Compound 949173] | 
≥ 7.00 | ≥ 7.00 | CCC1(c2cccc(-c3cc(C)nnc3C)c2)C2=C(CC(C)(C)NC2=O)Nc2n[nH]c(C(F)(F)F)c21 (stereo not drawn) [Compound 949174] | pIC50 [1, 5]: 6.00 to 7.00; pIC50 [2, 6]: 6.00 to 7.00
≥ 7.00 | ≥ 7.00 | CC[C@]1(c2cccc(S(=O)(=O)CC3CC3)c2)C2=C(CC(C)(C)NC2=O)Nc2n[nH]c(C(F)(F)F)c21 [Compound 949175] | pIC50 [1, 5]: ≥ 7.00; pIC50 [2, 6]: ≥ 7.00
≥ 7.00 | ≥ 7.00 | CC[C@]1(c2cccc(S(=O)(=O)C3CC3)c2)C2=C(CC(C)(C)N(C)C2=O)Nc2n[nH]cc21 [Compound 949177] | pIC50 [1, 5]: 6.00 to 7.00; pIC50 [2, 6]: 5.30 to 6.00

Source: patent publication US20250313563A1, “GLYCOGEN SYNTHASE KINASE 3 INHIBITORS AND USES THEREOF” (The Broad Institute, Inc., priority 2022, published 2025)
